Measured values published in the NIST ThermoML archive (doi:10.1016/j.jct.2007.11.011).
Numbers after ± are expanded uncertainties.

Experiment: xn = mol fraction of the nth substance listed
Settings: Liquid

CCOS(=O)(=O)[O-].CCn1cc[n+](C)c1 [1-ethyl-3-methylimidazolium ethyl sulfate] + CO
mass density [kg/m3]
Settings	100 kPa	2500 kPa	5000 kPa	10000 kPa	15000 kPa	20000 kPa	25000 kPa	30000 kPa	35000 kPa
283.15 K, x1 = 0.04781	895.14 ± 0.57	896.98 ± 0.6	898.83 ± 0.64	902.39 ± 0.71	905.85 ± 0.78	909.18 ± 0.85	912.41 ± 0.92	915.51 ± 0.98	918.59 ± 1
283.15 K, x1 = 0.1026	968.87 ± 0.48	970.47 ± 0.48	972.09 ± 0.49	975.24 ± 0.5	978.32 ± 0.5	981.31 ± 0.51	984.2 ± 0.51	987.02 ± 0.5	989.77 ± 0.54
283.15 K, x1 = 0.1977	1052.5 ± 0.52	1053.84 ± 0.54	1055.23 ± 0.56	1057.94 ± 0.6	1060.59 ± 0.66	1063.21 ± 0.72	1065.75 ± 0.79	1068.22 ± 0.87	1070.64 ± 0.95
283.15 K, x1 = 0.2432	1081.02 ± 0.55	1082.31 ± 0.58	1083.64 ± 0.61	1086.24 ± 0.69	1088.8 ± 0.77	1091.31 ± 0.87	1093.76 ± 0.97	1096.15 ± 1.1	1098.5 ± 1.2
283.15 K, x1 = 0.3026	1111.91 ± 0.59	1113.14 ± 0.64	1114.41 ± 0.68	1116.86 ± 0.79	1119.26 ± 0.91	1121.66 ± 1.1	1123.99 ± 1.2	1126.28 ± 1.4	1128.48 ± 1.5
283.15 K, x1 = 0.3887	1145.18 ± 0.64	1146.33 ± 0.7	1147.51 ± 0.77	1149.84 ± 0.92	1152.14 ± 1.1	1154.4 ± 1.3	1156.62 ± 1.5	1158.82 ± 1.7	1160.95 ± 1.9
283.15 K, x1 = 0.485	1173.12 ± 0.69	1174.24 ± 0.77	1175.35 ± 0.85	1177.57 ± 1	1179.75 ± 1.2	1181.92 ± 1.5	1184.04 ± 1.7	1186.14 ± 1.9	1188.17 ± 2.2
283.15 K, x1 = 0.589	1195.65 ± 0.73	1196.74 ± 0.81	1197.79 ± 0.91	1199.93 ± 1.1	1202.04 ± 1.4	1204.13 ± 1.6	1206.18 ± 1.9	1208.21 ± 2.1	1210.17 ± 2.4
283.15 K, x1 = 0.7289	1218.63 ± 0.77	1219.71 ± 0.87	1220.74 ± 0.97	1222.79 ± 1.2	1224.82 ± 1.5	1226.84 ± 1.8	1228.82 ± 2.1	1230.77 ± 2.4	1232.67 ± 2.6
283.15 K, x1 = 0.8521	1233.5 ± 0.8	1234.47 ± 0.9	1235.48 ± 1	1237.48 ± 1.3	1239.47 ± 1.6	1241.45 ± 1.9	1243.37 ± 2.2	1245.28 ± 2.5	1247.16 ± 2.8
283.15 K, x1 = 0.9397	1242.49 ± 0.82	1243.52 ± 0.93	1244.49 ± 1.1	1246.47 ± 1.4	1248.43 ± 1.6	1250.39 ± 2	1252.3 ± 2.3	1254.18 ± 2.6	1256.03 ± 2.9
293.15 K, x1 = 0.04781	886.34 ± 0.58	888.27 ± 0.62	890.2 ± 0.66	893.93 ± 0.74	897.52 ± 0.82	900.98 ± 0.9	904.34 ± 0.97	907.55 ± 1.1	910.71 ± 1.1
293.15 K, x1 = 0.1026	960.49 ± 0.49	962.13 ± 0.5	963.82 ± 0.5	967.09 ± 0.52	970.28 ± 0.53	973.36 ± 0.54	976.36 ± 0.54	979.27 ± 0.54	982.13 ± 0.55
293.15 K, x1 = 0.1977	1044.52 ± 0.51	1045.92 ± 0.52	1047.38 ± 0.54	1050.18 ± 0.58	1052.91 ± 0.63	1055.6 ± 0.68	1058.22 ± 0.75	1060.75 ± 0.81	1063.26 ± 0.89
293.15 K, x1 = 0.2432	1073.23 ± 0.54	1074.55 ± 0.56	1075.93 ± 0.59	1078.61 ± 0.66	1081.24 ± 0.74	1083.82 ± 0.83	1086.34 ± 0.92	1088.79 ± 1	1091.21 ± 1.1
293.15 K, x1 = 0.3026	1104.25 ± 0.58	1105.51 ± 0.62	1106.81 ± 0.67	1109.35 ± 0.77	1111.82 ± 0.88	1114.27 ± 1	1116.67 ± 1.1	1119.01 ± 1.3	1121.32 ± 1.5
293.15 K, x1 = 0.3887	1137.8 ± 0.63	1138.99 ± 0.69	1140.22 ± 0.75	1142.61 ± 0.89	1144.95 ± 1	1147.27 ± 1.2	1149.55 ± 1.4	1151.75 ± 1.6	1153.96 ± 1.8
293.15 K, x1 = 0.485	1165.78 ± 0.68	1166.91 ± 0.75	1168.06 ± 0.83	1170.35 ± 1	1172.59 ± 1.2	1174.79 ± 1.4	1176.97 ± 1.6	1179.09 ± 1.9	1181.21 ± 2.1
293.15 K, x1 = 0.589	1188.53 ± 0.71	1189.55 ± 0.8	1190.65 ± 0.89	1192.84 ± 1.1	1194.99 ± 1.3	1197.11 ± 1.6	1199.2 ± 1.8	1201.26 ± 2.1	1203.3 ± 2.3
293.15 K, x1 = 0.7289	1211.6 ± 0.75	1212.63 ± 0.85	1213.69 ± 0.95	1215.79 ± 1.2	1217.88 ± 1.5	1219.92 ± 1.7	1221.94 ± 2	1223.92 ± 2.3	1225.88 ± 2.6
293.15 K, x1 = 0.8521	1226.42 ± 0.78	1227.39 ± 0.89	1228.45 ± 1	1230.49 ± 1.3	1232.52 ± 1.6	1234.53 ± 1.8	1236.51 ± 2.1	1238.43 ± 2.4	1240.37 ± 2.7
293.15 K, x1 = 0.9397	1235.42 ± 0.8	1236.43 ± 0.91	1237.46 ± 1	1239.51 ± 1.3	1241.5 ± 1.6	1243.48 ± 1.9	1245.42 ± 2.2	1247.34 ± 2.5	1249.28 ± 2.8
298.15 K, x1 = 0.04781	881.9 ± 0.59	883.82 ± 0.63	885.81 ± 0.67	889.63 ± 0.76	893.33 ± 0.84	896.87 ± 0.92	900.3 ± 1	903.63 ± 1.1	906.81 ± 1.2
298.15 K, x1 = 0.1026	956.23 ± 0.49	957.85 ± 0.5	959.6 ± 0.51	962.97 ± 0.53	966.22 ± 0.54	969.37 ± 0.55	972.43 ± 0.56	975.41 ± 0.57	978.3 ± 0.57
298.15 K, x1 = 0.1977	1040.54 ± 0.5	1041.91 ± 0.52	1043.39 ± 0.53	1046.26 ± 0.57	1049.05 ± 0.61	1051.78 ± 0.66	1054.44 ± 0.72	1057.05 ± 0.79	1059.58 ± 0.86
298.15 K, x1 = 0.2432	1069.25 ± 0.53	1070.58 ± 0.56	1071.99 ± 0.58	1074.73 ± 0.65	1077.43 ± 0.72	1080.03 ± 0.8	1082.59 ± 0.9	1085.11 ± 0.99	1087.54 ± 1.1
298.15 K, x1 = 0.3026	1100.31 ± 0.57	1101.59 ± 0.61	1102.92 ± 0.66	1105.51 ± 0.75	1108.07 ± 0.86	1110.55 ± 0.98	1112.96 ± 1.1	1115.37 ± 1.3	1117.69 ± 1.4
298.15 K, x1 = 0.3887	1134.01 ± 0.63	1135.21 ± 0.68	1136.46 ± 0.74	1138.92 ± 0.87	1141.32 ± 1	1143.68 ± 1.2	1145.98 ± 1.4	1148.26 ± 1.6	1150.46 ± 1.8
298.15 K, x1 = 0.485	1162.03 ± 0.67	1163.15 ± 0.74	1164.36 ± 0.82	1166.69 ± 0.98	1168.99 ± 1.2	1171.24 ± 1.4	1173.44 ± 1.6	1175.62 ± 1.8	1177.74 ± 2.1
298.15 K, x1 = 0.589	1184.83 ± 0.71	1185.86 ± 0.79	1187.01 ± 0.88	1189.25 ± 1.1	1191.45 ± 1.3	1193.61 ± 1.6	1195.76 ± 1.8	1197.87 ± 2	1199.91 ± 2.3
298.15 K, x1 = 0.7289	1207.95 ± 0.75	1208.92 ± 0.84	1210.02 ± 0.94	1212.17 ± 1.2	1214.29 ± 1.4	1216.37 ± 1.7	1218.42 ± 2	1220.46 ± 2.2	1222.43 ± 2.5
298.15 K, x1 = 0.8521	1222.76 ± 0.78	1223.17 ± 0.88	1224.62 ± 0.99	1226.79 ± 1.3	1228.88 ± 1.5	1230.93 ± 1.8	1232.93 ± 2.1	1234.93 ± 2.4	1236.86 ± 2.7
298.15 K, x1 = 0.9397	1231.87 ± 0.8	1232.94 ± 0.9	1234.01 ± 1	1236.07 ± 1.3	1238.12 ± 1.6	1240.12 ± 1.9	1242.11 ± 2.2	1244.08 ± 2.5	1245.99 ± 2.8
303.15 K, x1 = 0.04781	877.37 ± 0.59	879.39 ± 0.64	881.43 ± 0.68	885.44 ± 0.77	890.01 ± 0.86	–	–	–	–
303.15 K, x1 = 0.1026	951.86 ± 0.5	953.61 ± 0.51	955.38 ± 0.52	958.89 ± 0.54	962.19 ± 0.56	–	–	–	–
303.15 K, x1 = 0.1977	1036.37 ± 0.5	1037.84 ± 0.51	1039.36 ± 0.53	1042.38 ± 0.56	1045.21 ± 0.6	–	–	–	–
303.15 K, x1 = 0.2432	1065.2 ± 0.53	1066.61 ± 0.55	1068.04 ± 0.58	1070.92 ± 0.64	1073.64 ± 0.71	–	–	–	–
303.15 K, x1 = 0.3026	1096.34 ± 0.57	1097.65 ± 0.61	1099 ± 0.65	1101.75 ± 0.74	1104.31 ± 0.84	–	–	–	–
303.15 K, x1 = 0.3887	1130.14 ± 0.62	1131.4 ± 0.67	1132.67 ± 0.73	1135.24 ± 0.86	–	–	–	–	–
303.15 K, x1 = 0.485	1158.24 ± 0.67	1159.4 ± 0.73	1160.61 ± 0.81	1163.06 ± 0.97	–	–	–	–	–
303.15 K, x1 = 0.589	1181.07 ± 0.7	1182.15 ± 0.78	1183.33 ± 0.87	1185.69 ± 1.1	–	–	–	–	–
303.15 K, x1 = 0.7289	1204.24 ± 0.74	1205.29 ± 0.83	1206.4 ± 0.93	1208.67 ± 1.2	–	–	–	–	–
303.15 K, x1 = 0.8521	1219.11 ± 0.77	1220.12 ± 0.87	1221.21 ± 0.98	1223.41 ± 1.2	–	–	–	–	–
303.15 K, x1 = 0.9397	1228.28 ± 0.79	1229.37 ± 0.89	1230.44 ± 1	1232.62 ± 1.3	–	–	–	–	–
